Test results from the supplement of paper PMC10307832.

Key:
Assay in all cases: relative viability (nuclei count vs DMSO), 5 days (fraction); higher = more cells survive
HCC-366 = system: HCC-366
Method in brief: (§1)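 Lung cancer cell lines, seeded in 1536-well plates, were treated the following day by pin tool with a single drug or with five library-drug doses (not always all listed) in √10 steps on top of a fixed anchor-drug dose. Cells were fixed and nuclei stained in one step after 5 days, and nuclei were counted. Relative viability is the nuclei count for treated wells divided by that for vehicle wells, reported as medians of duplicate plates.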

COR-L 105 = system: COR-L 105
Method in brief: as §1

EMC-BAC-2 = system: EMC-BAC-2
Method in brief: as §1

NCI-H1395 = system: NCI-H1395
Method in brief: as §1

NCI-H1437 = system: NCI-H1437
Method in brief: as §1

CAL-12T = system: CAL-12T
Method in brief: as §1

NCI-H460 = system: NCI-H460
Method in brief: as §1

NCI-H522 = system: NCI-H522
Method in brief: as §1

NCI-H727 = system: NCI-H727
Method in brief: as §1

NCI-H1755 = system: NCI-H1755
Method in brief: as §1

LCLC-103H = system: LCLC-103H
Method in brief: as §1

NCI-H1915 = system: NCI-H1915
Method in brief: as §1

NCI-H2009 = system: NCI-H2009
Method in brief: as §1

NCI-H23 = system: NCI-H23
Method in brief: as §1

NCI-H2228 = system: NCI-H2228
Method in brief: as §1

HOP-62 = system: HOP-62
Method in brief: as §1

HCC-827 = system: HCC-827
Method in brief: as §1

SW 1573 = system: SW 1573
Method in brief: as §1

SK-LU-1 = system: SK-LU-1
Method in brief: as §1

A-427 = system: A-427
Method in brief: as §1

HARA = system: HARA
Method in brief: as §1

NCI-H1792 = system: NCI-H1792
Method in brief: as §1

## O=c1cc(N2CCOCC2)oc2c(-c3cccc4c3sc3ccccc34)cccc12 + Cc1nc(Nc2ncc(C(=O)Nc3c(C)cccc3Cl)s2)cc(N2CCN(CCO)CC2)n1 [Dasatinib] (partner 0.075 µM)
HCC-366; first compound 0.01 µM
  relative viability: 0.672
HCC-366; first compound 0.03162 µM
  relative viability: 0.69
HCC-366; first compound 0.1 µM
  relative viability: 0.725
HCC-366; first compound 0.3162 µM
  relative viability: 0.601
HCC-366; first compound 1 µM
  relative viability: 0.618
COR-L 105; first compound 0.01 µM
  relative viability: 0.316
COR-L 105; first compound 0.03162 µM
  relative viability: 0.327
COR-L 105; first compound 0.1 µM
  relative viability: 0.314
COR-L 105; first compound 0.3162 µM
  relative viability: 0.372
COR-L 105; first compound 1 µM
  relative viability: 0.304
EMC-BAC-2; first compound 0.01 µM
  relative viability: 0.366
EMC-BAC-2; first compound 0.03162 µM
  relative viability: 0.32
EMC-BAC-2; first compound 0.1 µM
  relative viability: 0.342
EMC-BAC-2; first compound 0.3162 µM
  relative viability: 0.371
EMC-BAC-2; first compound 1 µM
  relative viability: 0.344
NCI-H1395; first compound 0.01 µM
  relative viability: 0.422
NCI-H1395; first compound 0.03162 µM
  relative viability: 0.393
NCI-H1395; first compound 0.1 µM
  relative viability: 0.407
NCI-H1395; first compound 0.3162 µM
  relative viability: 0.367
NCI-H1395; first compound 1 µM
  relative viability: 0.454
NCI-H1437; first compound 0.01 µM
  relative viability: 0.337
NCI-H1437; first compound 0.03162 µM
  relative viability: 0.329
NCI-H1437; first compound 0.1 µM
  relative viability: 0.492
NCI-H1437; first compound 0.3162 µM
  relative viability: 0.509
NCI-H1437; first compound 1 µM
  relative viability: 0.344
CAL-12T; first compound 0.01 µM
  relative viability: 0.322
CAL-12T; first compound 0.03162 µM
  relative viability: 0.531
CAL-12T; first compound 0.1 µM
  relative viability: 0.49
CAL-12T; first compound 0.3162 µM
  relative viability: 0.317
CAL-12T; first compound 1 µM
  relative viability: 0.295
NCI-H460; first compound 0.01 µM
  relative viability: 0.558
NCI-H460; first compound 0.03162 µM
  relative viability: 0.54
NCI-H460; first compound 0.1 µM
  relative viability: 0.516
NCI-H460; first compound 0.3162 µM
  relative viability: 0.512
NCI-H460; first compound 1 µM
  relative viability: 0.452
NCI-H522; first compound 0.01 µM
  relative viability: 1.01
NCI-H522; first compound 0.03162 µM
  relative viability: 0.915
NCI-H522; first compound 0.1 µM
  relative viability: 0.797
NCI-H522; first compound 0.3162 µM
  relative viability: 0.859
NCI-H522; first compound 1 µM
  relative viability: 0.745
NCI-H727; first compound 0.01 µM
  relative viability: 0.466
NCI-H727; first compound 0.03162 µM
  relative viability: 0.292
NCI-H727; first compound 0.1 µM
  relative viability: 0.456
NCI-H727; first compound 0.3162 µM
  relative viability: 0.367
NCI-H727; first compound 1 µM
  relative viability: 0.38
NCI-H1755; first compound 0.01 µM
  relative viability: 0.511
NCI-H1755; first compound 0.03162 µM
  relative viability: 0.412
NCI-H1755; first compound 0.1 µM
  relative viability: 0.471
NCI-H1755; first compound 0.3162 µM
  relative viability: 0.416
NCI-H1755; first compound 1 µM
  relative viability: 0.415
LCLC-103H; first compound 0.01 µM
  relative viability: 0.491
LCLC-103H; first compound 0.03162 µM
  relative viability: 0.412
LCLC-103H; first compound 0.1 µM
  relative viability: 0.539
LCLC-103H; first compound 0.3162 µM
  relative viability: 0.449
LCLC-103H; first compound 1 µM
  relative viability: 0.401
NCI-H1915; first compound 0.01 µM
  relative viability: 0.33
NCI-H1915; first compound 0.03162 µM
  relative viability: 0.334
NCI-H1915; first compound 0.1 µM
  relative viability: 0.314
NCI-H1915; first compound 0.3162 µM
  relative viability: 0.321
NCI-H1915; first compound 1 µM
  relative viability: 0.316
NCI-H2009; first compound 0.01 µM
  relative viability: 0.317
NCI-H2009; first compound 0.03162 µM
  relative viability: 0.268
NCI-H2009; first compound 0.1 µM
  relative viability: 0.303
NCI-H2009; first compound 0.3162 µM
  relative viability: 0.277
NCI-H2009; first compound 1 µM
  relative viability: 0.256
NCI-H23; first compound 0.01 µM
  relative viability: 0.828
NCI-H23; first compound 0.03162 µM
  relative viability: 0.911
NCI-H23; first compound 0.3162 µM
  relative viability: 0.815
NCI-H23; first compound 1 µM
  relative viability: 0.857
NCI-H2228; first compound 0.01 µM
  relative viability: 0.538
NCI-H2228; first compound 0.03162 µM
  relative viability: 0.416
NCI-H2228; first compound 0.1 µM
  relative viability: 0.49
NCI-H2228; first compound 0.3162 µM
  relative viability: 0.523
NCI-H2228; first compound 1 µM
  relative viability: 0.543
HOP-62; first compound 0.01 µM
  relative viability: 0.676
HOP-62; first compound 0.03162 µM
  relative viability: 0.676
HOP-62; first compound 0.1 µM
  relative viability: 0.672
HOP-62; first compound 0.3162 µM
  relative viability: 0.639
HOP-62; first compound 1 µM
  relative viability: 0.616
HCC-827; first compound 0.01 µM
  relative viability: 0.338
HCC-827; first compound 0.03162 µM
  relative viability: 0.293
HCC-827; first compound 0.1 µM
  relative viability: 0.323
HCC-827; first compound 0.3162 µM
  relative viability: 0.283
HCC-827; first compound 1 µM
  relative viability: 0.328
SW 1573; first compound 0.01 µM
  relative viability: 0.463
SW 1573; first compound 0.03162 µM
  relative viability: 0.482
SW 1573; first compound 0.1 µM
  relative viability: 0.535
SW 1573; first compound 0.3162 µM
  relative viability: 0.546
SW 1573; first compound 1 µM
  relative viability: 0.475
SK-LU-1; first compound 0.01 µM
  relative viability: 0.173
SK-LU-1; first compound 0.03162 µM
  relative viability: 0.175
SK-LU-1; first compound 0.1 µM
  relative viability: 0.166
SK-LU-1; first compound 0.3162 µM
  relative viability: 0.195
SK-LU-1; first compound 1 µM
  relative viability: 0.181
A-427; first compound 0.01 µM
  relative viability: 0.728
A-427; first compound 0.03162 µM
  relative viability: 0.766
A-427; first compound 0.1 µM
  relative viability: 0.677
A-427; first compound 0.3162 µM
  relative viability: 0.636
A-427; first compound 1 µM
  relative viability: 0.792
HARA; first compound 0.01 µM
  relative viability: 0.208
HARA; first compound 0.03162 µM
  relative viability: 0.282
HARA; first compound 0.1 µM
  relative viability: 0.276
HARA; first compound 0.3162 µM
  relative viability: 0.268
HARA; first compound 1 µM
  relative viability: 0.243
NCI-H1792; first compound 0.01 µM
  relative viability: 0.857
NCI-H1792; first compound 0.03162 µM
  relative viability: 0.663
NCI-H1792; first compound 0.1 µM
  relative viability: 0.856
NCI-H1792; first compound 0.3162 µM
  relative viability: 0.996
NCI-H1792; first compound 1 µM
  relative viability: 0.788
